In PMC6385123, “Design, Synthesis, Anticancer Evaluation and Molecular Modeling of Novel Estrogen Derivatives” (Molecules, 2019):
Where two headings read alike, the source gives them in different places.

Legend:
MCF-7 cells = assay: In vitro cytotoxic activity, MTT assay, MCF-7; type: cell-based, human; conditions: MTT assay, MCF-7 cell line, read-out: IC50 (Mean ± SEM) MCF-7
Method: (§1) MCF-7 (human breast cancer) cells, obtained from Sigma-Aldrich Chemie GmbH, Taufkirchen, Germany, were propagated in RPMI-1640 supplemented with 10% heat inactivated FBS, 2 mM L-glutamine, and 1% standard antibiotic solution. Cells were incubated in a 5% CO2 humidified incubator at 37 °C and passaged bi-weekly. The in vitro anti-proliferative activity of the newly synthesized derivatives was assayed using standard MTT technique. Results were expressed as IC50. Experiments were repeated at least in triplicate, to obtain good reproducibility between replicate wells with standard errors below 10%. Furthermore, the cytotoxic effects of the prepared derivatives were evaluated against normal nonmalignant cells, non-tumorigenic MCF-10A, in order to find out if the synthesized derivatives have toxicity against normal cells. Additionally, results were compared with reference compounds (cisplatin and milaplatin) as positive controls.

MCF-10A cells = assay: In vitro cytotoxicity against normal non-tumorigenic cells, MTT assay; type: cell-based; conditions: normal non-tumorigenic MCF-10A cells, read-out: IC50 (Mean ± SEM) MCF-10A
Method: as §1

[1] = target: T1, p53 ubiquitination (GST-tagged HDM2) (Homo sapiens, UniProt Q00987); assay: In vitro p53 ubiquitination assay; type: biochemical; conditions: GST-tagged HDM2, p53, ubiquitin, E1 and E2 (UbcH5B); read-out: IC50 (Mean ± SEM) In Vitro p53 Ubiquitination
T1 construct: GS4b-MDM2 RING beads were prepared as above and were used in place of the full-length MDM2; made in house; host or cells: Escherichia coli BL21
Method: Different prepared derivatives were evaluated for their inhibitory potential against p53 ubiquitination. The method is based on incubating different compounds with GST-tagged HDM2, immobilized on glutathione-Sepharose, p53, ubiquitin, E1 and E2 (UbcH5B) ligases. The buffer contained ATP as detailed by Gomha and Abdelaziz. The reaction products were then resolved by SDSPAGE and p53 ubiquitination and were quantified by Western blotting using an anti-p53 antibody.
Briefly, rGSH-S-transferase-tagged MDM2 (GST-MDM2) was expressed in Escherichia coli BL21 cells using 1 mM isopropyl-thio-b-D-galactoside for 3 h. The enzyme was then purified on glutathione-sepharose beads (Amersham). Beads were washed with Tris (pH 7.5). The reaction contained fluorescent ubiquitin (5 µg; Invitrogen), 50 ng mammalian E1 (Enzo), 200 ng human rUbcH5B E2 (Enzo), 200 ng His-p53 (Enzo) and buffer [50 mM Tris pH 8,2 mM dithiothreitol, 5 mM MgCl2, 2 mM adenosine triphosphate (ATP)]. The MPD-compound or control mixture was dose-titrated onto GS4b-MDM2 beads. Incubation at 37 °C was followed by shaking (1200 rpm, 1 h). The reaction was terminated with 3× sodium dodecyl sulfate sample buffer. Finally, unbound fluorescent ubiquitin was drained and the total fluorescent ubiquitin signal was measured using a plate reader (Safire).
The procedure was performed similar to the aforementioned protocol except that 5 µg unlabeled ubiquitin (Enzo) was used. Following incubation, resolving of reaction products was performed using sodium dodecyl sulfate PGE. Analysis was done by western blotting using anti-p53 DO-1. For the MDM2 RING auto-ubiquitination assay, GS4b-MDM2 RING beads were prepared as above and were used in place of the full-length MDM2.

p53 ubiquitination = assay: In vivo ubiquitination of p53 (transfected cells); type: cell-based; conditions: cells transfected with p53, MDM2, HIS-ubiquitin; exposed 6 h; read-out: IC50 (Mean ± SEM) In Vivo p53 Ubiquitination
Method: In vivo ubiquitination of p53 was assayed according to [38] Cells were grown for 24 h (50% confluency) before transfection of 1 µg p53, 4 µg MDM2 and 1 µg HIS-ubiquitin with Gene Juice reagent. Grown for another 20 h, cells were exposed to prepared derivatives or controls for 6 h and MG132 for 4 h, then washed and collected in PBS, where 5% of the solution was kept as an input. The remaining pelleted cells (95% after centrifugation) were lysed in 700 µL of ubiquitin buffer A (6 M guanidinium HCl, 300 mM NaCl, 50 mM phosphate pH 8.0, 100 µg/mL N-ethylmaleimide), and sonicated for 5 min at 20% amplitude. Lysates were incubated overnight with Invitrogen Dynabeads His-Tag matrix and washed once with ubiquitin buffers A, B, C and phosphate buffered saline (ubiquitin buffer B: Mix ubiquitin buffer A and ubiquitin buffer C 1:1; ubiquitin buffer C: 300 mM NaCl, 50 mM phosphate pH 8.0, 100 µg/mL N-ethylmaleimide). The washed lysates were resolved by 8% sodium dodecyl sulfate–polyacrylamide gel electrophoresis, followed by immunoblotting with a p53 (DO-1) antibody.

EGFR = EGFR (Homo sapiens, UniProt P00533); assay: EGFR kinase inhibition assay; type: biochemical; conditions: 8 μM ATP, poly(Glu,Tyr)4:1 substrate; read-out: IC50 (Mean ± SEM) EGFR
Method: (§2) The EGFR and VEGFR-2 kinase activities were assayed as previously described. The assay was performed in 96-well plates pre-coated with 20 μg mL^−1 poly (Glu, Tyr)4:1 (Sigma-Aldrich Chemie GmbH, Taufkirchen, Germany) as a substrate. In each well, 85 μL of an 8 μM ATP solution and 10 μL of the compound were added at varying concentrations. Experiments were repeated three times. Reactions started with 5 μL of different kinases and incubation for 1 h at 37 °C. Plates were 3X-washed with PBS/0.1% Tween 20. Accordingly, 100 μL of anti-phosphotyrosine (PY99; 1:500 dilutions) antibody was added, and plates were incubated for another hour at room temperature. Plates were then 3X-washed, and addition of goat anti-mouse IgG horseradish peroxidase (100 μL; 1:2000 dilution) diluted in T-PBS containing 5 mg mL^−1 BSA followed. Plates were further incubated at room temperature for another hour, and then 3X-washed. Finally, 100 μL (developing solution, 0.03% H2O2, 2 mg mL^−1 o-phenylenediamine/citrate buffer, 0.1 M, pH 5.5) was added and incubation continued until color development. The reaction was stopped by 100 μL of 2M H2SO4, and the absorption was measured at 492 nm using a multiwell spectrophotometer (VERSAmax™). The inhibition rate (%) was calculated using the equation:Inhibition rate (%) = [1 − (A492/A492Control)] × 100%(1)

VEGFR-2 = VEGFR-2 (Homo sapiens, UniProt P35968); assay: VEGFR-2 kinase inhibition assay; type: biochemical; conditions: 8 μM ATP, poly(Glu,Tyr)4:1 substrate; read-out: IC50 (Mean ± SEM) VEGFR-2
Method: as §2

T1 sequence (Q00987 whole entry): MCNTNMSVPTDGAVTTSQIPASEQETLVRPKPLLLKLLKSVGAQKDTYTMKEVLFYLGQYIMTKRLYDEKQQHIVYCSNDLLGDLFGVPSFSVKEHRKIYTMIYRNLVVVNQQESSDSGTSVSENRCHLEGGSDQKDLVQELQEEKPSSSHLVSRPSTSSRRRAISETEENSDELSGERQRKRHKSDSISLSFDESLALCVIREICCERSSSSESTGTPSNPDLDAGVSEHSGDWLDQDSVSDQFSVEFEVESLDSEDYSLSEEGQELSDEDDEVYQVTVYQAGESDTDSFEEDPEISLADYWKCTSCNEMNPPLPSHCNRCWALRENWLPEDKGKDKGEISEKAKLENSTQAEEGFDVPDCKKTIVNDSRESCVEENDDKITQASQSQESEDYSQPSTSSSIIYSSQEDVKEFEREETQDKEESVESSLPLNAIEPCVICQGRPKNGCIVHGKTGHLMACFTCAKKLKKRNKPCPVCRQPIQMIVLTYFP
EGFR, sequence (P00533 25-1210): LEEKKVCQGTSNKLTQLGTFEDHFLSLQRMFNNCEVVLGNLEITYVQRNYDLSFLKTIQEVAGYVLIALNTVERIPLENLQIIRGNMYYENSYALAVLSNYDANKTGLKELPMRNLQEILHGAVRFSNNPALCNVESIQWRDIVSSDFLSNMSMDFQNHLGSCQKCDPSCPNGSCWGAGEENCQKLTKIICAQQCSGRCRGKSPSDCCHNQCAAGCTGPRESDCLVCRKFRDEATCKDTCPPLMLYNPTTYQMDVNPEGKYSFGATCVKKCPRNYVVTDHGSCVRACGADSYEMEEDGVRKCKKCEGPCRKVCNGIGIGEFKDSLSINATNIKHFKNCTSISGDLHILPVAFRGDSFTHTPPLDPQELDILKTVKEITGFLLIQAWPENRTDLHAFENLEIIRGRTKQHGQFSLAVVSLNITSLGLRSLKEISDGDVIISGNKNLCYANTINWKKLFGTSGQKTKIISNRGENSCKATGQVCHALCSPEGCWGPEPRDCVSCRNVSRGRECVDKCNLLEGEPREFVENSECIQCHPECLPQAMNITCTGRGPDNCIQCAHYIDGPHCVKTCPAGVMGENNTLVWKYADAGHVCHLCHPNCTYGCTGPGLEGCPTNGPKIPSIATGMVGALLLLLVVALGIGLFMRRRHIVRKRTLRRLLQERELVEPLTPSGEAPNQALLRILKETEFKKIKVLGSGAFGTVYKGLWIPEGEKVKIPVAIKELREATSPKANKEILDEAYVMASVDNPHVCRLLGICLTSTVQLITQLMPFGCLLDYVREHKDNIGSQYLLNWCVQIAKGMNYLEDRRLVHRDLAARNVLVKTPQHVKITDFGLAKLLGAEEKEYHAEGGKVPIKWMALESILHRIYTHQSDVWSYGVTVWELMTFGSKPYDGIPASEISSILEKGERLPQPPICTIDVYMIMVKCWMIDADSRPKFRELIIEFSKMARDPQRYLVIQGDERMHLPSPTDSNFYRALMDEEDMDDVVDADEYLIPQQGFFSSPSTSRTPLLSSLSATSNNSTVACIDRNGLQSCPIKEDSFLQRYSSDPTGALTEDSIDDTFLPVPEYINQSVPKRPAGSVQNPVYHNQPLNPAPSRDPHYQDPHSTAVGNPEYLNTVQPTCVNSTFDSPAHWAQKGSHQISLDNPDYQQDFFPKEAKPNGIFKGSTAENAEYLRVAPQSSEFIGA
VEGFR-2, sequence (P35968 20-1356): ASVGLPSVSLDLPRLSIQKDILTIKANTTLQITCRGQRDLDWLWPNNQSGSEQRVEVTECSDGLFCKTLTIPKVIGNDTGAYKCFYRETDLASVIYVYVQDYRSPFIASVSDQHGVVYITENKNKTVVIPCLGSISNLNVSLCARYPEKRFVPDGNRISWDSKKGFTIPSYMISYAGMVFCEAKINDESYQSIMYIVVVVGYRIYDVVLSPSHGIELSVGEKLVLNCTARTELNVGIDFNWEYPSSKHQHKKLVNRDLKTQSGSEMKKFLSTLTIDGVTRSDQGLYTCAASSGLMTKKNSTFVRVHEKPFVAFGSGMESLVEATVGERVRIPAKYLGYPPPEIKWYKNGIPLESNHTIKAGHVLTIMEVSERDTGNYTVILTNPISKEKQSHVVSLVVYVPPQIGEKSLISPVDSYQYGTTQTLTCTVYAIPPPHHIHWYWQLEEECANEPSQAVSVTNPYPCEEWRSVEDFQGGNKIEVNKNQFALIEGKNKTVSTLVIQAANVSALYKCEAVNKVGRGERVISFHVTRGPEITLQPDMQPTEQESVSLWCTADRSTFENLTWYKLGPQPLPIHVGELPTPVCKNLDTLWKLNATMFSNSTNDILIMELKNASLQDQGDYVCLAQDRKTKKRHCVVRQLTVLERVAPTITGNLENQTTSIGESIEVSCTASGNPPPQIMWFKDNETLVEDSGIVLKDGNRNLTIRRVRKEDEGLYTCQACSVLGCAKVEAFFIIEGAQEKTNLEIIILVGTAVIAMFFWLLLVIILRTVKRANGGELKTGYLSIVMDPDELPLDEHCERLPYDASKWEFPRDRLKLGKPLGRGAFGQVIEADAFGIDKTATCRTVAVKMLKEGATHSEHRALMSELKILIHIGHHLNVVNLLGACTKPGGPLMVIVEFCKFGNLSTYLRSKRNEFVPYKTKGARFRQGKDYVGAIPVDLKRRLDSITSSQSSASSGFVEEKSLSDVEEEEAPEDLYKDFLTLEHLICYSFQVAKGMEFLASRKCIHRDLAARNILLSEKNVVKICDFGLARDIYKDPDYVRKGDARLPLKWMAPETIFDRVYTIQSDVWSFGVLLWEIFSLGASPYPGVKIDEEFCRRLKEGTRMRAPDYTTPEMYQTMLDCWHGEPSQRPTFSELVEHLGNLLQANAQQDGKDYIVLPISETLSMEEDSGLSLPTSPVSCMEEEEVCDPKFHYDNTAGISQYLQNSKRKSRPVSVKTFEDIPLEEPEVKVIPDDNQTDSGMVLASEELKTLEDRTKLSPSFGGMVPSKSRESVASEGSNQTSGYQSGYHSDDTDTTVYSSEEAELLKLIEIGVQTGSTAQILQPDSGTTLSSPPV

Compound	IC50 (MCF-7 cells; Homo sapiens, MCF7) [µM]	IC50 (MCF-10A cells; Homo sapiens) [µM]	IC50 [1] [µM]	IC50 (p53 ubiquitination) [nM]	IC50 (EGFR) [nM]	IC50 (VEGFR-2) [nM]	melting point [°C]	IC50 (MCF-7 cells) [µM]	IC50 (MCF-10A cells) [µM]
CC12CCC3c4ccc(O)cc4CCC3C1CC1=C2NC(=O)NC1c1ccccc1Cl (centres unmarked) [Compound 3a, 2′-Oxo-6′-(2-chlorophenyl)-estra-1(10),2,4,16(17)-tetraien-[17,16-d]pyrimidino-3-ol]	35.7 ± 0.4	401 ± 11.6	47.6 ± 0.6	600 ± 8.6	127 ± 3.7	47 ± 3	266 to 268		
Milaplatin [reference compound]								18.43 ± 0.13	18.3 ± 0.34
CC12CCC3c4ccc(O)cc4CCC3C1CC1=C2NC(=O)NC1c1ccc(Cl)cc1 (centres unmarked) [Compound 3b, Oxo-6′-(4-chlorophenyl)-estra-1(10),2,4,16(17)-tetraien-[17,16-d]pyrimidino-3-ols]	38.6 ± 0.87	422 ± 13.8	53.6 ± 0.78	630 ± 9.5	155 ± 5.1	48 ± 1.4	308 to 310		
CC12CCC3c4ccc(O)cc4CCC3C1CC1C2=NN(C(N)=O)C1c1ccc(Cl)cc1 (centres unmarked) [Compound 7b, 1-Carbamoyl-1’H-(2’H)-5’-(4-chlorophenyl)-estra-1(10),2,4-trien-[17,16-c]pyrazoline-3-ol]	46.2 ± 0.93	512 ± 16.6	77.6 ± 0.97	890 ± 9.9	227 ± 0.4	57 ± 0.5	248 to 250		
CC12CCC3c4ccc(O)cc4CCC3C1CC1C2=NN(C(N)=O)C1c1ccccc1Cl (centres unmarked) [Compound 7a, 1-Carbamoyl-1′H-(2’H)-5′-(2-chlorophenyl)-estra-1(10),2,4-trien-[17,16-c]pyrazoline-3-ol]	41.1 ± 0.84	466 ± 17.3	66.7 ± 0.86	860 ± 6.8	188 ± 1.6	55 ± 1.3	298 to 300		
CC12CCC3c4ccc(O)cc4CCC3C1CC1=C2NC(=NC#N)NC1c1ccc(Cl)cc1 (centres unmarked) [Compound 6b, 2′-Cyanoimino-6′-(4-chlorophenyl)-estra-1(10),2,4,16(17)-tetraien-[17,16-d]-pyrimidino-3-ol]	26.46 ± 0.17	277 ± 8.23	29.5 ± 0.36	420 ± 7.4	91 ± 2.5	33 ± 1	282 to 284		
N.N.[Cl][Pt][Cl] [Cisplatin, reference compound]								13.34 ± 0.11	9.55 ± 0.54
CC12CCC3c4ccc(O)cc4CCC3C1CC1=C2NC(=S)NC1c1ccc(Cl)cc1 (centres unmarked) [Compound 4b, 2’-Thione-6’-(4-chlorophenyl)-estra-1(10),2,4,16(17)-tetraien-[17,16-d]-pyrimidine-3-ol]	31.8 ± 0.39	311 ± 9.59	45.8 ± 0.49	570 ± 9.7	98 ± 0.9	43 ± 1.8	333 to 335		
Oc1cc(O)c2cc(O)c(-c3cc(O)c(O)c(O)c3)[o+]c2c1 [Delphinidin, reference compound]					6270 ± 0.76	5090 ± 1.2			
CC12CCC3c4ccc(O)cc4CCC3C1CC1=C2NC(=NC#N)NC1c1ccccc1Cl (centres unmarked) [Compound 6a, 2′-Cyanoimino-6′-(2-chlorophenyl)-estra-1(10),2,4,16(17)-tetraien-[17,16-d]pyrimidino-3-ol]	24.57 ± 0.16	244 ± 7.78	28.47 ± 0.25	320 ± 6.3	90 ± 0.6	31 ± 4.1	223		
CC12CCC3c4ccc(O)cc4CCC3C1CC1C2=NN(C(N)=S)C1c1ccc(Cl)cc1 (centres unmarked) [Compound 8b, 1-Thiocarbamoyl-1′H-(2′H)-5′-(4-chlorophenyl)-estra-1(10),2,4-trien-[17,16-c]pyrazoline-3-ol]	40.4 ± 0.95	446 ± 15.4	64.6 ± 0.78	820 ± 7.8	177 ± 4.1	53 ± 2.3	252 to 256		
CC12CCC3c4ccc(O)cc4CCC3C1CC1C2=NN(C(N)=S)C1c1ccccc1Cl (centres unmarked) [Compound 8a, 1-Thiocarbamoyl-1′H-(2′H)-5′-(2-chlorophenyl)-estra-1(10),2,4-trien-[17,16-c]pyrazoline-3-ol]	39.5 ± 0.75	435 ± 14.6	55.4 ± 0.69	740 ± 8.7	166 ± 2.8	51 ± 1.7	294 to 296		
CC12CCC3c4ccc(O)cc4CCC3C1CC1=C2NC(=S)NC1c1ccccc1Cl (centres unmarked) [Compound 4a, 2′-Thione-6′-(2-chlorophenyl)-estra-1(10),2,4,16(17)-tetraien-[17,16-d]pyrimidine-3-ol]	28.64 ± 0.28	302 ± 8.86	36.6 ± 0.58	450 ± 8.5	95 ± 2.8	37 ± 2.6	290 to 292		
CC12CCC3c4ccc(O)cc4CCC3C1CC1=C2NC(=N)NC1c1ccc(Cl)cc1 (centres unmarked) [Compound 5b, 2′-Imino-6′-(4-chlorophenyl)-estra-1(10),2,4,16(17)-tetraien-[17,16-d]pyrimidino-3-ol]	22.5 ± 0.24	235 ± 7.76	27.6 ± 0.34	310 ± 5.3	88 ± 1.3	29 ± 0.3	326 to 328		
